From patent US20120157401A1, “METHODS FOR TREATING NEUROFIBROMATOSIS” (PTC Therapeutics, Inc., priority 2009, published 2012)

Tests used:
[1] = target: human-ether-a-go-go-related gene (hERG) current (Homo sapiens, UniProt Q12809); assay: Higher throughput hERG assay; assay type: cell-based
HT1080 xenografts = assay: BrdU labeling of cells from HT1080 xenografts grown in nude mice; assay type: in vivo, athymic nude mice; settings: Day 1, 2, 3; Compound #10 10 mg/kg oral QD, doxorubicin 6 mg/kg IP, bevacizumab 5 mg/kg IP
Procedure: Experimental Design. HT1080 cells (5×10^6 cells/mouse) were implanted subcutaneously in male athymic nude mice.
The mice were sacrificed 3 hours later, and the tumors collected. A single cell suspension was prepared from the tumor cells. The cells were permeabilized and an antibody to BrdU was used to stain cells that had entered S phase during the labeling period. The proportion of cells actively synthesizing DNA was determined by cell sorting.

HT1080 spheroids = assay: 3-dimensional growth of HT1080 spheroids (BrdU / 7-AAD FACS, morphology); assay type: cell-based, human
Procedure: Experimental Design. HT1080 cells grown as a monolayer were trypsinized and seeded onto a 0.75% agar noble base to prevent the cells from attaching to the bottom of the tissue culture plate and to allow/promote the cells to self-adhere and grow as 3-dimensional spheroids. […] The cells were incubated for 22 and 45 hours at 37° C., in the presence of a 10% CO2 atmosphere. Spheroids were visually checked daily for morphological changes and a medium was replenished two times per week. […] These pulse labeled spheroids were then harvested, washed and trypsinized (triple action solution, Gibco), pelleted and prepared for FACS analysis with a FITC BrdU Flow Kit, (BD Pharmingen). Cells were fixed and permeabilized with paraformadehyde and DNA stained with 7-AAD followed by incubation with an antibody which specifically recognizes […] incorporated into DNA. As described in Section 9.3.1.4. Cells were analyzed and sorted by 7-AAD signal (DNA content) to determine cell cycle phase, and BrdU content (percent actively synthesizing DNA).
Spheroids, prepared as above, were treated with either vehicle alone (0.5% DMSO v/v final) added to the media or a Compounds provided herein (10 nM or 50 nM final concentration) in media to which vehicle has been added.

[2] = tested on: Chinese hamster ovary (CHO) cells; assay: Chromosome aberration study in CHO cells; assay type: cell-based; settings: with and without metabolic activation
Procedure: Genotoxicity was assessed in a battery of in vitro and in vivo studies that included a bacterial reverse mutation study, a chromosome aberration study in Chinese hamster ovary (CHO) cells, and a micronucleus study in rats by the oral route. The in vitro studies were performed in the presence and absence of an exogenous metabolic activation system.

[3] = 7-day oral toxicity study in rats; assay type: in vivo
Procedure: A battery of genotoxicity studies was also performed. […] The L23 vehicle was used.
Maximal exposures occurred at a dose of 120 mg/kg/day.

[4] = 14C-Compound #10 tissue distribution by quantitative whole-body autoradiography (Tables 23, 33); assay type: in vivo; settings: rats, single oral 50 mg/kg
Procedure: For the QWBA, the carcasses were prepared by immediately freezing them, embedding them in chilled carboxymethylcellulose, and freezing them into blocks. Appropriate cryomicrotome sections of the blocks at 40 μm thickness were collected on adhesive tape. Mounted sections were tightly wrapped and exposed on phosphorimaging screens along with plastic embedded autoradiographic standards. Exposed screens were scanned and the autoradiographic standard image data were sampled to create a calibrated standard curve. Specified tissues, organs, and fluids were analyzed.

MDA MB 468 xenografts = assay: Tumor perfusion by DCE-MRI in MDA-MB-468 xenografts; assay type: in vivo, athymic nude mice; settings: 10 mg/kg oral QD
Source text: Experimental Design. Dynamic contrast-enhanced magnetic resonance imaging can be used preclinically and clinically to evaluate the anatomy of soft tissues, including the identification and accurate measurement of tumor volumes. In addition, evaluation of the intratumoral pharmacokinetics of contrast agents containing gadolinium can be used to measure vascular permeability characteristics. Coupling gadopentetate dimeglumine gadolinium to a […] like bovine serum albumin can reveal information about the necrotic (non-perfused) and non-necrotic (perfused) tumor volumes, and the percentage of vascular blood volume relative to the perfused tumor volume (known as the fractional blood volume [fBV]). Use of a […] tracer, gadopentetate dimeglumine, can reveal information regarding the volume transfer coefficient (K^trans), a variable that represents a combination of vascular permeability, vascular surface area, and blood flow.
Before each DCE-MRI scan, mice were injected intravenously with gadolinium-containing contrast dyes (bovine serum albumin-gadopentetate dimeglumine conjugate at ˜0.03 mmol/kg followed by gadopentetate dimeglumine at ˜0.2 mmol/kg). Baseline DCE-MRI measurements were taken on Day −1, test Compounds were administered on Day 0 through Day 5, and additional DCE-MRI measurements were taken on Days 1, 3, and 5. Image analyses were conducted with customized software. Total tumor volumes were measured by semi-automatically segmenting a region of interest around an anatomical image of the tumor. Tumor volumes of necrotic and non-necrotic tissues were measured by applying the same semi-automated segmentation process to a contrast dyed image. fBV and K^trans were computed using a standard Kety PK model.

[5] = Respiratory safety pharmacology in awake telemeterized dogs; assay type: in vivo, beagle dogs; settings: single oral doses of 30, 60, and 120 mg/kg, male dogs

human-ether-a-go-go-related gene (hERG) current, sequence (Q12809 whole entry): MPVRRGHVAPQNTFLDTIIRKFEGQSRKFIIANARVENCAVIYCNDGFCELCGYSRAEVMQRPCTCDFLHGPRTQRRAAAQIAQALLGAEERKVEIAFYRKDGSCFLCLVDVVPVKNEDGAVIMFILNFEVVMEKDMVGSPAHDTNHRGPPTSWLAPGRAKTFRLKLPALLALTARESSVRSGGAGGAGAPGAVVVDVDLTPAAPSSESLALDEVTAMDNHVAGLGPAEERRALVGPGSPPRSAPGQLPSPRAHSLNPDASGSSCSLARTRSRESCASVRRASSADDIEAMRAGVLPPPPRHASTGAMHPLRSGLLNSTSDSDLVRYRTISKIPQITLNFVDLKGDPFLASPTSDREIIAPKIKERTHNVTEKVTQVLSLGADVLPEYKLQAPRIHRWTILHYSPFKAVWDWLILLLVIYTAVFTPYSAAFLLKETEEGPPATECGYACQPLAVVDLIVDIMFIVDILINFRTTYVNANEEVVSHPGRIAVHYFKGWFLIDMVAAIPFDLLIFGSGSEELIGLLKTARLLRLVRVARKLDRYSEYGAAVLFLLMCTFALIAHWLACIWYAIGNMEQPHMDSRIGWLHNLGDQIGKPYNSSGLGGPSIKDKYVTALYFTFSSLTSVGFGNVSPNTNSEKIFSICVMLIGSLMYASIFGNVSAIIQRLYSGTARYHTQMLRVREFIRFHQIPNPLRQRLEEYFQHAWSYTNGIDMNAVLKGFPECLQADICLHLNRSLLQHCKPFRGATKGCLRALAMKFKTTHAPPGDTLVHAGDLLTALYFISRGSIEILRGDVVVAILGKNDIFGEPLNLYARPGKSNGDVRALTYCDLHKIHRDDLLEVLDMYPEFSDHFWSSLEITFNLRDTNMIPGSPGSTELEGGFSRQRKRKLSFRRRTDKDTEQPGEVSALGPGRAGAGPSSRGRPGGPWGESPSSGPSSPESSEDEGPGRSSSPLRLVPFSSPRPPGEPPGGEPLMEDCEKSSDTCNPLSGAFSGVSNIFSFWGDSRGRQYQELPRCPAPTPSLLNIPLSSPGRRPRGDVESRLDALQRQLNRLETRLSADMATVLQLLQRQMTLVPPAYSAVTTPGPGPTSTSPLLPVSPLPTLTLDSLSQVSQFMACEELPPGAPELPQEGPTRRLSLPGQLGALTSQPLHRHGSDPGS

SMILES: COc1ccc(C2c3[nH]c4ccc(Cl)cc4c3CCN2C(=O)Oc2ccc(Cl)cc2)cc1 (racemic) [Compound #10]
- Inhibition of hERG current [1]: negative for meaningful inhibition
- BrdU staining of tumor cells (proportion of cells in S phase) (HT1080 xenografts): increased BrdU staining
- Cell cycle distribution of HT1080 spheroids (HT1080 spheroids; 24 or 48 hours): not affected
- Percentage of spheroid cells that incorporated BrdU (HT1080 spheroids; 24 or 48 hours): not significantly altered
- Morphology of spheroids (HT1080 spheroids; maintained in the presence of compound for three weeks, data not shown): no obvious morphological changes
- Genotoxic effects, chromosome aberration in CHO cells [2]: no evidence of genotoxic effects
- Dose of maximal exposures ([3]; Sprague Dawley, rat, in vivo, po, 7 days): 120 mg/kg/day
- NOAEL for 7-days ([3]; female rats): 120 mg/kg/day
- NOAEL for 7-days ([3]; male rats): 40 mg/kg/day
- Mean prothrombin time (PT) and activated partial thromboplastin time (aPTT) ([3]; rat, in vivo, 120 mg/kg/day): increases
- Tmax of radioactivity in blood and plasma ([4]; both sexes): 4 hours postdose
- Blood-brain barrier penetration [4]: penetrates the blood-brain barrier
- Overt signs of toxicity [4]: no overt signs of toxicity
- Change in mean tumor fBV in non-necrotic tissue (MDA MB 468 xenografts; Day 1 to Day 5): declined after Day 3
- Change in mean K^trans in non-necrotic tissue (MDA MB 468 xenografts; Day −1 to Day 5): decreased
- Change in mean necrotic tumor volume (MDA MB 468 xenografts; Day −1 to Day 5): rapidly increased
- Change in mean non-necrotic tumor volume (MDA MB 468 xenografts; Day −1 to Day 5): decreased
- Change in mean total tumor volume (MDA MB 468 xenografts; Day −1 to Day 5): little mean change
- Changes in respiratory rate, core body temperature, arterial blood gases, arterial pH, or arterial bicarbonate [5]: no dose dependent or biologically significant changes
